Data from article PMC9616048, “Thermal proteome profiling reveals Haemonchus orphan protein HCO_011565 as a target of the nematocidal small molecule UMW-868” (Frontiers in Pharmacology, 2022).
Like-named read-outs stand apart in the source and are kept apart here.

What was measured:
[1] = test system: H. contortus xL3 to L4 development; experiment: High throughput screen, larval development and phenotype at 168 h; type: cell-based, Haemonchus contortus
Experimental: Following the measurement of xL3 motility, plates were incubated again for 78 h (i.e., a total of 168 h) under the same conditions. Thereafter, 40 µl of 1% (v/v) iodine were added to individual wells, and worms examined using a light microscope (M80, Leica) at 60-times magnification to assess larval development, based on the presence/absence of a well-developed pharynx ([Sommerville, 1966]), and/or phenotypic alterations with respect to untreated xL3s.

H. contortus xL3s = experiment: Dose-response evaluation, xL3 motility; type: cell-based; conditions: Haemonchus contortus
Experimental: These evaluations were carried out to estimate the half-maximal inhibitory concentrations (IC50 values) for hit compounds against H. contortus xL3s. With reference to the two positive-control compounds (monepantel and moxidectin), IC50 values for compounds were estimated ([Preston et al., 2015]; [Taki et al., 2021a]) using two-fold serial dilution (in LB*; 9 points from 50 μM to 0.2 µM) in 96-well plates (cat. no. 3596; Corning) with larvae at a density of 300 H. contortus xL3s in 100 µl per well. Plates containing H. contortus xL3s were incubated at 38°C, 10% (v/v) CO2 and >90% relative humidity.
Compound concentrations were log10-transformed and fitted using a variable slope four-parameter equation, constraining the highest value to 100% employing a least squares (ordinary) fit model using GraphPad Prism software (v.9.1.2). Compounds were tested by three independent experiments in triplicate. A one-way analysis of variance (ANOVA) with a Tukey’s multiple comparison test or an unpaired t-test was used to establish statistically significant differences in larval motility or development.

eggs of H. contortus = experiment: Egg hatch assay; type: cell-based; conditions: Haemonchus contortus, 48 h; read-out: Egg hatch inhibition (IC50 in µM)
Experimental: Compounds were also assessed for their effect on the hatching of eggs of H. contortus in vitro. To do this, eggs were isolated from the faeces from sheep with patent (30 day-) H. contortus infection by sucrose flotation ([Mes et al., 2007]). Eggs were suspended in H2O at a concentration of one egg per µl. The eggs were dispensed into wells (in triplicate; 100 eggs per well) and incubated with two-fold serial dilutions (9 points from 50 μM to 0.2 µM in H2O) of individual test or control compounds for 48 h at 27°C and >90% relative humidity; wells with no compound were also included. The numbers (percentages) of eggs from which first-stage larvae (L1s) hatched were counted using a light microscope (M80, Leica) at a 40-times magnification. With reference to positive-control compounds (i.e., monepantel and moxidectin), IC50 values of compounds were calculated.

[2] = test system: mitochondria of HepG2 human hepatoma cells; experiment: Mitochondrial toxicity in HepG2 cells (galactose medium); type: cell-based; conditions: HepG2 mitochondria, concentrations of up to 100 µM
Experimental: The toxicities of compounds on cell and mitochondria were assessed to estimate their half-maximal cytotoxic concentrations (CC50) and half-maximal mitotoxic concentrations (MC50), respectively. HepG2 human hepatoma cells were seeded into wells of a 96-well plate at a density of 5.5 × 10^4 cells per well in 80 µl of Dulbecco’s modified eagle medium (DMEM; with GlutaMax™ cat. no. 10566016 or 4 mM L-glutamine cat. no. 11966025; Thermo Fisher Scientific), supplemented with 25 mM D-glucose (cytotoxicity) or D-galactose (mitotoxicity), 10% (v/v) inactivated foetal bovine serum (iFBS), 100 IU/ml of penicillin, 100 μg/ml of streptomycin and 0.25 μg/ml of amphotericin B (designated DMEM*). Cells were allowed to adhere for 16 h at 37°C and 5% (v/v) CO2 at > 90% relative humidity, then, incubated for 48 h with individual, serially-diluted compounds (two-fold serial dilution in DMEM*; […]) in a final volume of 100 µl. For the assessment of toxicity on mitochondria, cells were starved of serum (DMEM* without iFBS) for 4 h prior to the 48 h-incubation with compounds ([Swiss and Will, 2011]; [Kamalian et al., 2015]). Two positive control compounds, doxorubicin (cytotoxic control) and M-666 (mitotoxic control) were each added to three individual wells in each 96-well plate at a single concentration of 10 µM. DMEM* + 0.25% (v/v) DMSO was added to 12 wells in each plate as negative controls. Monepantel and moxidectin were also serially diluted — prepared in the same manner as test compounds — and used as (“non-toxic”) reference compounds. After 48 h of incubation, cell viability was determined by the crystal violet staining method ([Śliwka et al., 2016]). The absorbance (595 nm) of treated cells was normalised with reference to the negative control (100% viability). To determine the CC50 and MC50 values, compound concentrations were log10-transformed, baseline-corrected using a respective positive control (doxorubicin or M-666) and fitted using a variable slope four-parameter equation with a least squares (ordinary) fit model using GraphPad Prism software (v.9.1.2). Compounds and controls were tested in triplicate.

[3] = test system: Caenorhabditis elegans young adults; experiment: In vitro activity on C. elegans; type: cell-based
He. polygyrus in mice = experiment: In vivo activity against He. polygyrus in mice
Experimental: Candidate compound(s) were tested for their effect on other nematode species (He. polygyrus and A. ceylanicum) in infected rodents.
For He. polygyrus, four NMRI mice (3 weeks old; female) were infected orally with 88 He. polygyrus L3s, and immunosuppressed with 0.25 mg/ml dexamethasone (Sigma-Aldrich), in the drinking water, until 2 days prior to treatment ([Mes et al., 2007]). For A. ceylanicum, four Syrian golden hamsters (3 weeks old; male) were infected orally with 300 L3s without immunosuppression ([Tritten et al., 2012]). […] Four each of untreated mice and hamsters served as placebo controls. Six to 7 days post-treatment with the compound, all animals were euthanised by CO2 (hamsters being initially narcotised using isoflurane), and the intestine was dissected. The live adult worms were collected and counted to calculate the worm burden reductions and worm expulsion rates. The worm burden reduction was calculated using the mean number of live worms for the treated group and establishing the differences, in a percentage, with reference to the untreated control group.

[4] = mouse, He. polygyrus, 200 mg/kg single oral dose

CCCc1ccc(-c2nc(-c3cccs3)no2)cc1 [UMW-868, 5-(4-propylphenyl)-3-(2-thienyl)-1,2,4-oxadiazole]
Abnormal phenotype detected at 168 h ([1]; 20 µM): Cur, Evi
inhibition at 20 µM ([1]; Haemonchus contortus, development to L4): 80 to 99%
IC50 (H. contortus xL3s; 90 h, xL3s, 90 h, read-out: IC50 (motility)): 5.6 µM
IC50 (H. contortus xL3s; 168 h, analog series, read-out: xL3 motility reduction (IC50 in µM)): 13.8 µM
IC50 (eggs of H. contortus): 6.2 µM
mitotoxicity (in words) [2]: did not display any appreciable cytotoxicity or mitotoxicity
motility reduction of C. elegans ([3]; 10 µM, at 40 h): 53.5%
IC50 ([3]; Caenorhabditis elegans, read-out: IC50 (C. elegans motility)): 9.9 µM
acute toxicity and pathological changes in treated animals (He. polygyrus in mice; mice, single oral dose, post-mortem examination): neither evidence of acute toxicity
Mean no. of worms (SD) (He. polygyrus in mice; [4]): 12.0 (3.5)
Reduction in infection intensity (%) (He. polygyrus in mice; [4]): 47%
